The values below come from patent publication US20050180982A1, “Cadherin-11 expression, an assay and treatment for cellular invasiveness” (THE UNIVERSITY OF BRITISH COLUMBIA, priority 1998, published 2005).

Data set [1] has as its system cad-11 protein in endometrial stromal cells. Kind of data set: Western blot of cad-11 protein in cultured endometrial stromal cells treated with gonadal steroids. It is filed as cell-based, human. The method, then:
(§1) Endometrial tissue biopsies (n=6) were obtained from women of reproductive age during the mid-secretory phase of the menstrual cycle. All patients had normal menstrual cycles and had not received hormones for at least three months prior to the collection of tissue. The stage of the menstrual cycle was determined by the last menstrual period and confirmed by histological evaluation.
The endometrial stromal cells were separated from the glandular epithelium by enzymatic digestion and mechanical dissociation. The endometrial biopsy specimens were minced and subjected to 0.1% colagenase (type 1A. Sigma Chemical Co., St. Louis. MO) and 0.1% hyaluronidase (type I-S, Sigma Chemical Co.) digestion in a shaking water bath at 37° C. for 1 hour. The cell digest was then passed through a nylon sieve (38 m). The isolated glands were retained on the sieve and the eluate containing the stromal cells collected in a 50 ml tube. […] The purity of the cell cultures was determined by immunocytochemical staining for vimentin, cytokeratin, muscle actin, and […]. […]
(§2) The results are presented as the mean relative absorbance (+SE) for three independent experiments. Statistical differences between time points and treatments were assessed by the analysis of variance (ANOVA). […] Significant differences between the means were determined using the least significant test.

The subject of data set [2] is cad-11 mRNA in endometrial stromal cells. Kind of data set: Northern blot of cad-11 mRNA in cultured endometrial stromal cells treated with gonadal steroids. It counts as cell-based, human. As to conditions: P4 1 mM, E2 30 nM. The procedure: as §1
The endometrial stromal cells were separated from the glandular epithelium by enzymatic digestion and mechanical dissociation. […] The purity of the cell cultures was determined by immunocytochemical staining for vimentin, cytokeratin, muscle actin, and […]. […]
The Northern blots were hybridized with radiolabelled cDNA probes specific for human cad-11 according to the methods of MacCalman et al. (1992) Developmental Dynamics 195:127-132. […] The absorbance values obtained for cad-11 mRNA transcripts were normalized relative to the 18S rRNA absorbance value.
as §2

For a further data set, the system named is cad-11. Kind of data set: Cad-11 antisense/sense oligonucleotide studies, second oligonucleotide pair. The following applies: no individual experiments specified. It counts as cell-based, human. The procedure:
Antisense oligonucleotide sequences (18 mers, 50% AT/GC) were selected from the full-length cad-11 cDNA sequence using the MacVector™ program. DNA sequences located near the 5′ end of the cad-11 cDNA were selected and compared to the human sequence databases of GenBank and EMBL bank. […] Sense oligonucleotides, OB-3 and OB-4, were prepared as controls. Phosphothiorate labelled oligonucleotides were prepared at the Biotechnology Lab. of The University of British Columbia. The same results were obtained using OB-1 and OB-3, as with OB-2 and OB-4.

The subject of data set [3] is N-cadherin mRNA in human granulosa cells. As to the kind of experiment: Specificity of antisense in granulosa cells, Northern blot, N-cadherin probe. It is filed as cell-based. As to conditions: 0.5-5 M, 24 hours. The method, then: (§3) In order to determine the specificity of OB-1, the effect of OB-1 was determined in human granulosa cells. Human granulosa cells express three cadherin subtypes (cad-11, cad-6 and N-cad) as they undergo spontaneous luteinization in culture. Granulosa cells which had been cultured for 36 hours were treated with OB-1 or OB-3 (0.5-5 M). The cultures were maintained for a further 24 hours, after which the cells were harvested for Northern analysis. Northern blots were probed with cad-11, cad-6, or N-cadherin (neural cadherin) cDNA probes as previously described. OB-1 caused a reduction in the levels of the cad-11 RNA transcript in a dose-dependent manner but had no effect on cad-6 or N-cadherin mRNA levels. In contrast.

Data set [4] has as its system cytotrophoblasts isolated from term placenta. As to the kind of experiment: Morphology of cytotrophoblasts by light microscopy and indirect immunofluorescence. It counts as cell-based, human. The following applies: indirect immunofluorescence for E-cadherin. The source says:
The effect of OB-1 and OB-3 on the morphology of the cytotrophoblast was examined by light microscopy and indirect immunofluoresence.

The next data set relates to villous cytotrophoblasts. As to the kind of experiment: Reversibility of oligonucleotide effects on villous cytotrophoblasts. It is filed as cell-based, human. As to conditions: 48 hours with oligonucleotide, washed, further 24 hours. The procedure: To determine whether the effects of OB-1 on villous cytotrophoblasts are reversible, cells were cultured in the presence of OB-1 or OB-3 for 48 hours. The cells were washed thoroughly with PBS. The culture medium was then replaced and the cells cultured for a further 24 hours. […] The majority of cells (90%) detached from the culture and dish. Cad-11 was not detected in the remaining cells.

Data set [5] concerns Cos-1 cells transfected with the steroid acute regulatory protein. Kind of data set: Non-specific effects on cell number and steroidogenic capacity in Cos-1 cells. It is filed as cell-based. Set-up: cell number (Coulter cell counter): dose or concentration left out as unconfirmed. The procedure:
Non-specific effects of the antisense oligonucleotides on cell viability and the steroidogenic capacity of cells was determined using Cos-1 cells transfected with the steroid acute regulatory protein (from Dr. J. F. Strauss, III. University of Pennsylvania, Philadelphia, Pa.). […] The COS-1 cells were cultured in the presence or absence of varying concentrations of OB-1 OR OB-3 (0.5-5 M) for 48 hours. The cell number present in each culture was determined using a Coulter™ cell counter and P4 concentrations present in the culture medium using a Progesterone RIA™ kit. As determined by these parameters.

The test system of data set [6] is PC3 cells treated with TGF-1. As to the kind of experiment: Effect of oligonucleotides on PC3 cells treated with TGF-1. The following applies: 0.5-5 M for 24 hours.
Another data set relates to human decidual cells. Kind of data set: Effect on primary cultures of human decidual cells. As to conditions: 0.5-5 M for 24 hours.
Data set [7] has as its system cad-6 mRNA in human granulosa cells. Kind of data set: Specificity of antisense in granulosa cells, Northern blot, cad-6 probe. It is filed as cell-based. As to conditions: 0.5-5 M, 24 hours. The method, then:
as §3

For data set [8], the system named is cad-11 RNA transcript in human granulosa cells. As to the kind of experiment: Specificity of antisense in granulosa cells, Northern blot, cad-11 probe. The following applies: 24 hours, dose-dependent manner for OB-1. It is filed as cell-based. Set-up: dose or concentration left out as unconfirmed. The procedure: as §3
In data set [9] the test system is Villous cytotrophoblasts isolated from the human term placenta, cultured 72 hours.

With `CC(=O)[C@H]1CC[C@H]2[C@@H]3CCC4=CC(=O)CC[C@]4(C)[C@H]3CC[C@]12C` [P4, progesterone], the “time in culture at which maximum cad-11 expression levels were detected” value in data set [1] is listed as 12 days. Further, the cad-11 protein expression entry in data set [1] (P4, E2 30 nM, alone or together, increase seen at 2 days of culture) is listed as “increase”. For the same compound, the “time in culture at which maximum cad-11 mRNA levels were observed” value in data set [2] came out at 12 days. In addition, in [2] (alone or together, increase seen after 2 days of culture, studied 0-12 days), the “stromal cad-11 mRNA levels” value is on record as “significant increase”.
For the compound “OB-2: cad-11 antisense oligonucleotide, 18 mer: CAC GAA GAA CTG GTT CCA (SEQ ID NO:2) (antisense CACGAAGAACTGGTTCCA; listed as DNA, chemistry not given here; listed as Homo sapiens)”, the “results compared with the pair OB-1 (antisense) and OB-3 (sense)” value with cad-11 is recorded as “same results”.
For “OB-3: sense oligonucleotide prepared as control: ATG ACA AAT GTT CGG CGG (SEQ ID NO:3) (sense ATGACAAATGTTCGGCGG; chemistry not given here) [reference compound]”, the “N-cadherin mRNA levels” value in [3] is “did not effect”. Besides, the “composition of cellular structures formed (fusion)” value in data set [4] is reported as “multinucleated syncytial structures”. For the same compound, the “structures observed after wash-out” value in the data set on villous cytotrophoblasts is recorded as “large syncytial structures”. Besides, the “steroidogenic capacity (P4 concentrations in culture medium, RIA)” value in [5] (0.5-5 M for 48 hours) is recorded as “did not have a significant effect”. Besides, the “cell number (Coulter cell counter)” value in data set [5] (for 48 hours) is on record as “did not have a significant effect”. Moreover, the “cell viability and number” value (in [6]; in the data set with human decidual cells) was “did not have a significant effect” throughout. Besides, the “cad-6 mRNA levels” value in data set [7] is “did not effect”. The “levels of the cad-11 RNA transcript” value in data set [8] is recorded as “did not effect”. Also, the “viability of syncytial structures (trypan blue)” value in [9] is “viable”. In addition, the “structures observed (phase contrast microscopy)” value in data set [9] (oligonucleotide added after 72 hours of culture, OB-1 for 24 hours) is recorded as “Large syncytial structures”.
Consider “OB-4: sense oligonucleotide prepared as control: ACC TTG GTC AAG AAG CAC (SEQ ID NO:4) (sense ACCTTGGTCAAGAAGCAC; listed as DNA, chemistry not given here) [reference compound]”, for which the “results compared with the pair OB-1 (antisense) and OB-3 (sense)” value with cad-11 was “same results”.
